Experimental findings from US20240294543A1, “CYCLOHEPTA-THIENO-DIAZEPINE DERIVATIVES AS GABA A GAMMA1 PAM” (Hoffmann-La Roche Inc., priority 2021, published 2024) are described below.

The pKi is −log10 of the Ki, conventionally taken in molar units.

pKi: −log10 of the molar value. Where two headings read alike, the source gives them in different places.

Assay [1] has as its target human GABAA α1β3γ2 receptor (Homo sapiens (Human), UniProt P14867+P18507). Briefly: Radioligand binding assay, competition for [3H]Flumazenil, γ2-containing GABAA subtypes. Particulars: for γ2/γ1 Selectivity Ratio: Ki α1β3γ2 (nM)/Ki α2β2γ1 (nM); for LogSel: Log[Ki α1β3γ2 (nM)/Ki α2β2γ1 (nM)]. The method, boiled down: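 Competition against [3H]Flumazenil binding in HEK293F cells transiently expressing human α1β3γ2 receptors, pellets resuspended in mannitol buffer pH 7,2-7,4. Incubated to equilibrium 1 hour at 4° C, filtered and washed with ice-cold 50 mM Tris pH 7.5, bound radioactivity by liquid scintillation counting. Ki values are means of two determinations.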

The target of assay [2] is human GABAA α2β2γ1 receptor (Homo sapiens (Human), UniProt P47869+Q8N1C3). Description: Radioligand binding assay, competition for [3H]RO7239181, γ1-containing GABAA subtypes.
Assay [3] has as its target human GABAA α5β2γ1 receptor (Homo sapiens (Human), UniProt P31644+Q8N1C3). The assay is described as above.
Setting [4] is: Ki h-GABAA α2β2γ1, membranes of HEK293F cells, [3H]RO7239181 20-30 nM, Table 1.
Where [5] appears, read: Ki h-GABAA α2β2γ1, membranes of HEK293F cells, [3H]RO7239181 20-30 nM, Table 2.
Setting [6] is: HEK293F cells, [3H]Flumazenil 1 nM, Table 1, read-out: Ki h-GABAA α1β3γ2.

Consider `Cc1nnc2n1-c1sc3c(c1C(c1c(F)cccc1F)=N[C@H]2C)CCC[C@H](F)C3` (single isomer, unassigned) [Example 17], for which the negative-log Ki (pKi) in assay [1] is 6.23; in assay [2] (setting [4]) it was 8.37; in assay [2] (setting [5]), 8.37; in assay [3] it was 8.75. Further, in assay [1] (Table 1), the “γ2/γ1 Selectivity Ratio” value is listed as 135.6. Further, the LogSel in assay [1] (Table 1) is on record as 2.13.
With `C[C@@H]1N=C(c2c(F)cccc2F)c2c(sc3c2COCCO3)-n2nc(C(=O)NC3CC3)nc21` [Example 36], the negative-log Ki (pKi) was 5.39 in assay [1] (setting [6]), 7.25 in assay [2] (setting [4]), 7.25 in assay [2] (setting [5]) and 8.44 in assay [3]. In assay [1] (Table 1), the “γ2/γ1 Selectivity Ratio” value came out at 72.6. In addition, the LogSel in assay [1] (Table 1) is listed as 1.86.
For the compound `C[C@@H]1N=C(c2c(F)cccc2F)c2c(sc3c2COCCO3)-n2c(C3CC3)nnc21` [Example 43, (7S)-3-cyclopropyl-9-(2,6-difluorophenyl)-7-methyl-13,16-dioxa-18-thia-2,4,5,8-tetrazatetracyclo[8.8.0.02,6.011,17]octadeca-1(10),3,5,8,11(17)-pentaene], the negative-log Ki (pKi) in assay [1] was 5.27; in assay [2] (setting [4]) it was 7.63; in assay [2] (setting [5]), 7.63; in assay [3] it was 8.35. Further, the “γ2/γ1 Selectivity Ratio” value in assay [1] (Table 1) was 227.2. The same compound came in with a LogSel in assay [1] (Table 1) of 2.36.
For the compound `C[C@@H]1N=C(c2c(F)cccc2F)c2c(sc3c2COC[C@H](C)O3)-n2nc(C(=O)N3CC(OC(C)(C)C)C3)nc21` [Example 41, (3-tert-butoxyazetidin-1-yl)-[(7S,15S)-9-(2,6-difluorophenyl)-7,15-dimethyl-13,16-dioxa-18-thia-2,3,5,8-tetrazatetracyclo[8.8.0.02,6.011,17]octadeca-1(10),3,5,8,11(17)-pentaen-4-yl]methanone], the pKi is 4.91 in assay [1] (setting [6]), 7.19 in assay [2] (setting [4]), 7.19 in assay [2] (setting [5]) and 8.21 in assay [3]. Also, the “γ2/γ1 Selectivity Ratio” value in assay [1] (Table 1) was 188.2. The compound further displayed a LogSel in assay [1] (Table 1) of 2.27.
Regarding `C[C@@H]1N=C(c2c(F)cccc2F)c2c(sc3c2COCCO3)-n2nc(C(=O)NCCF)nc21` [Example 25, (7S)-9-(2,6-difluorophenyl)-N-(2-fluoroethyl)-7-methyl-13,16-dioxa-18-thia-2,3,5,8-tetrazatetracyclo[8.8.0.02,6.011,17]octadeca-1(10),3,5,8,11(17)-pentaene-4-carboxamide], the negative-log Ki (pKi) in assay [1] (setting [6]) is 5.66; in assay [2] (setting [4]), 7.54; in assay [2] (setting [5]) it was 7.54; in assay [3], 8.68. Also, in assay [1] (Table 1), the “γ2/γ1 Selectivity Ratio” value worked out at 75.4. Also, the LogSel in assay [1] (Table 1) came to 1.88.
In the case of `Cc1nnc2n1-c1sc3c(c1C(c1c(F)cccc1F)=N[C@H]2C)CCCCC3` [Example 2, (7S)-9-(2,6-difluorophenyl)-3,7-dimethyl-18-thia-2,4,5,8-tetrazatetracyclo[8.8.0.02,6.011,17]octadeca-1(10),3,5,8,11(17)-pentaene], the pKi in assay [1] was 6.00; in assay [2] (setting [4]) it was 8.13; in assay [2] (setting [5]) it was 8.13; in assay [3], 8.77. Moreover, the “γ2/γ1 Selectivity Ratio” value in assay [1] (Table 1) was 133.9. In assay [1] (Table 1), the LogSel is on record as 2.13.
Regarding `CC(C)c1nnc2n1-c1sc3c(c1C(c1c(F)cccc1F)=N[C@H]2C)COCCO3` [Example 44, (7S)-9-(2,6-difluorophenyl)-3-isopropyl-7-methyl-13,16-dioxa-18-thia-2,4,5,8-tetrazatetracyclo[8.8.0.02,6.011,17]octadeca-1(10),3,5,8,11(17)-pentaene], the pKi in assay [1] is 5.19; in assay [2] (setting [4]), 7.54; in assay [2] (setting [5]), 7.54; in assay [3], 8.31. Besides, the “γ2/γ1 Selectivity Ratio” value in assay [1] (Table 1) came out at 220.4. This compound yielded a LogSel in assay [1] (Table 1) of 2.34.
Regarding `C[C@@H]1N=C(c2c(F)cccc2F)c2c(sc3c2COCCC3)-n2nc(C(=O)N[C@H]3C[C@H](O)C3)nc21` [Example 63, (7S)-9-(2,6-difluorophenyl)-N-(trans-3-hydroxycyclobutyl)-7-methyl-13-oxa-18-thia-2,3,5,8-tetrazatetracyclo[8.8.0.02,6.011,17]octadeca-1(10),3,5,8,11(17)-pentaene-4-carboxamide], the negative-log Ki (pKi) in assay [1] (setting [6]) is 5.35; in assay [2] (setting [4]), 7.34; in assay [2] (setting [5]), 7.34; in assay [3], 8.09. Besides, the “γ2/γ1 Selectivity Ratio” value in assay [1] (Table 1) was 96.5. This compound gave a LogSel in assay [1] (Table 1) of 1.98.
On to `C[C@@H]1N=C(c2c(F)cccc2F)c2c(sc3c2COCCO3)-n2cc(C(=O)NCC3(O)CC3)nc21` [Example 65, (7S)-9-(2,6-difluorophenyl)-N-[(1-hydroxycyclopropyl)methyl]-7-methyl-13,16-dioxa-18-thia-2,5,8-triazatetracyclo[8.8.0.02,6.011,17]octadeca-1(10),3,5,8,11(17)-pentaene-4-carboxamide], for which the pKi in assay [1] (setting [6]) was 5.91; in assay [2] (setting [4]), 7.64; in assay [2] (setting [5]), 7.64; in assay [3], 8.77. The “γ2/γ1 Selectivity Ratio” value in assay [1] (Table 1) was found to be 53.8. The compound also returned a LogSel in assay [1] (Table 1) of 1.73.
As to `Cc1nnc2n1-c1sc3c(c1C(c1c(F)cccc1F)=NC2)CCCCO3` [Example 18, 9-(2,6-difluorophenyl)-3-methyl-16-oxa-18-thia-2,4,5,8-tetrazatetracyclo[8.8.0.02,6.011,17]octadeca-1(10),3,5,8,11(17)-pentaene], the negative logarithm of the Ki (pKi) is 6.37 in assay [1], 7.68 in assay [2] (setting [4]), 7.68 in assay [2] (setting [5]) and 8.74 in assay [3]. The “γ2/γ1 Selectivity Ratio” value in assay [1] (Table 1) stood at 20.5. For the same compound, the LogSel in assay [1] (Table 1) is given as 1.31.
Take `CCOC1CN(C(=O)c2nc3n(n2)-c2sc4c(c2C(c2c(F)cccc2F)=N[C@H]3C)COCCO4)C1` [Example 31, [(7S)-9-(2,6-Difluorophenyl)-7-methyl-13,16-dioxa-18-thia-2,3,5,8-tetrazatetracyclo[8.8.0.02,6.011,17]octadeca-1(10),3,5,8,11(17)-pentaen-4-yl]-(3-ethoxyazetidin-1-yl)methanone]: the negative logarithm of the Ki (pKi) was 5.34 in assay [1] (setting [6]), 8.26 in assay [2] (setting [4]), 8.25 in assay [2] (setting [5]) and 8.62 in assay [3]. In addition, the “γ2/γ1 Selectivity Ratio” value in assay [1] (Table 1) was determined as 818.0. In assay [1] (Table 1), this compound came in with a LogSel of 2.91.
`C[C@@H]1N=C(c2c(F)cccc2F)c2c(sc3c2COCCO3)-n2nc(C(=O)N3CC(F)C3)nc21` [Example 24, (3-fluoroazetidin-1-yl)-[(7S)-9-(2,6-difluorophenyl)-7-methyl-13,16-dioxa-18-thia-2,3,5,8-tetrazatetracyclo[8.8.0.02,6.011,17]octadeca-1(10),3,5,8,11(17)-pentaen-4-yl]methanone]: the pKi in assay [1] (setting [6]) is 5.59; in assay [2] (setting [4]), 8.43; in assay [2] (setting [5]), 8.42; in assay [3], 8.90. Further, in assay [1] (Table 1), the “γ2/γ1 Selectivity Ratio” value was determined as 691.7. The compound also showed a LogSel in assay [1] (Table 1) of 2.84.
Regarding `C[C@@H]1N=C(c2c(F)cccc2F)c2c(sc3c2COCCC3)-n2nc(C(=O)N[C@H]3C[C@@H](O)C3)nc21` [Example 64, (7S)-9-(2,6-difluorophenyl)-N-(cis-3-hydroxycyclobutyl)-7-methyl-13-oxa-18-thia-2,3,5,8-tetrazatetracyclo[8.8.0.02,6.011,17]octadeca-1(10),3,5,8,11(17)-pentaene-4-carboxamide], the pKi in assay [1] (setting [6]) was 5.10; in assay [2] (setting [4]), 7.25; in assay [2] (setting [5]) it was 7.25; in assay [3] it was 8.19. For the same compound, the “γ2/γ1 Selectivity Ratio” value in assay [1] (Table 1) is on record as 139.9. The compound further gave a LogSel in assay [1] (Table 1) of 2.15.
For `Cc1nnc2n1-c1sc3c(c1C(c1c(F)cccc1F)=N[C@H]2C)CC[C@H](F)CC3` (single isomer, unassigned) [Example 14], the pKi was 4.96 in assay [1], 7.42 in assay [2] (setting [4]), 7.42 in assay [2] (setting [5]) and 8.31 in assay [3]. Also, the “γ2/γ1 Selectivity Ratio” value in assay [1] (Table 1) is 286.6. The compound further registered a LogSel in assay [1] (Table 1) of 2.46.
`Cc1nnc2n1-c1sc3c(c1C(c1c(F)cccc1F)=NC2)CCCCC3` [Example 1, 9-(2,6-difluorophenyl)-3-methyl-18-thia-2,4,5,8-tetrazatetracyclo[8.8.0.02,6.011,17]octadeca-1(10),3,5,8,11(17)-pentaene]: the pKi in assay [1] is 6.43; in assay [1] (read-out: Ki h-GABAA α1β3γ2, Table 3, reference compounds and examples) it was 6.43; in assay [2] (Ki h-GABAA α2β2γ1, Table 3, reference compounds and examples), 8.12; in assay [2] (setting [4]), 8.12; in assay [2] (setting [5]), 8.12; in assay [3] it was 8.85. For the same compound, the “γ2/γ1 Selectivity Ratio” value in assay [1] (Table 1) and in assay [1] (Table 3) was 49.6 in each case. The LogSel is listed as 1.70 in assay [1] (Table 1) and 1.7 in assay [1] (Table 3).
In the case of `Cc1nnc2n1-c1sc3c(c1C(c1c(F)cccc1F)=N[C@H]2C)CC[C@@H](F)CC3` (single isomer, unassigned) [Example 15], the negative logarithm of the Ki (pKi) in assay [1] is 5.45; in assay [2] (setting [4]), 7.37; in assay [2] (setting [5]), 7.37; in assay [3], 8.10. In addition, the “γ2/γ1 Selectivity Ratio” value in assay [1] (Table 1) is 82.5. In assay [1] (Table 1), this compound showed a LogSel of 1.92.
